Reference: ChEMBL document CHEMBL3885861, “Open TG-GATES”

Species: Rattus norvegicus
Experiment: Open TG-GATES - Regimen: Daily Repeat
Type: toxicity, organism-based, Sprague-Dawley
Parameters: regimen Daily Repeat, gender Male, age 6 weeks
Settings: in vivo, po, route gavage; for Bas / Eos / Fbg / Lym / MCH / MCHC / MCV / Mono / Neu / PT / Plat / RBC / Ret / WBC: tissue Blood; for KIDNEY_L / KIDNEY_R / KIDNEY_TOTAL: tissue Kidney; for ALP / ALT / AST / BUN / CRE / DBIL / IP / K / LDH / Na / RALB / TBIL / TC / TG / TP / gamma-GTP / GLC: tissue Plasma
[1] = 0 mg/kg, 72 h, dose level Control, time 3 day
[2] = 0 mg/kg, […], dose level Control, time 7 day
[3] = 0 mg/kg, […], dose level Control, time 14 day
[4] = 0 mg/kg, […], dose level Control, time 28 day
[5] = 3 mg/kg, 72 h, dose level Low, time 3 day
[6] = 3 mg/kg, […], dose level Low, time 7 day
[7] = 3 mg/kg, […], dose level Low, time 14 day
[8] = 3 mg/kg, […], dose level Low, time 28 day

## Cc1cnc(NC(=O)C2=C(O)c3ccccc3S(=O)(=O)N2C)s1 [MELOXICAM]
[1]
  TERMINAL_BW: 245.1 g
  Bas: 0.8%
  Eos: 1.2%
  Fbg: 223.6 mg/dL
  Lym: 78.4%
  MCH: 21.4 pg
  MCHC: 34.2%
  MCV: 62.4 fL
  Mono: 2.8%
  Neu: 17%
  PT: 11.9 s
  Plat: 120 x10_4/uL
  RBC: 645.4 x10_4/ul
  Ret: 5.5%
  KIDNEY_L: 1 g
  KIDNEY_R: 1 g
  KIDNEY_TOTAL: 2 g
  ALP: 947 IU/L
  ALT: 42.2 IU/L
  AST: 70.4 IU/L
  BUN: 18 mg/dL
  CRE: 0.4 mg/dL
  DBIL: 0.1 mg/dL
  IP: 7.7 mg/dL
  K: 4.1 meq/L
  LDH: 199.2 IU/L
  Na: 141 meq/L
  RALB: 3.5 g/dL
  TBIL: 0.2 mg/dL
  TC: 70.8 mg/dL
  TG: 111.6 mg/dL
  TP: 5.6 g/dL
  gamma-GTP: 1 IU/L
[2]
  TERMINAL_BW: 281.9 g
  Bas: 0.8%
  Eos: 1%
  Fbg: 216.6 mg/dL
  Lym: 78.4%
  MCH: 21.4 pg
  MCHC: 34.9%
  MCV: 61.4 fL
  Mono: 2.4%
  Neu: 16.6%
  PT: 11.9 s
  Plat: 139.5 x10_4/uL
  RBC: 655.6 x10_4/ul
  Ret: 5.1%
  KIDNEY_L: 1.2 g
  KIDNEY_R: 1.1 g
  KIDNEY_TOTAL: 2.3 g
  ALP: 892.2 IU/L
  ALT: 33.8 IU/L
  AST: 68.2 IU/L
  BUN: 15.8 mg/dL
  CRE: 0.4 mg/dL
  DBIL: 0.082 mg/dL
  GLC: 214.8 mg/dL
  IP: 7.3 mg/dL
  K: 3.8 meq/L
  LDH: 190.6 IU/L
  Na: 142 meq/L
  RALB: 3.3 g/dL
  TBIL: 0.1 mg/dL
  TC: 67.2 mg/dL
  TG: 110.2 mg/dL
  TP: 5.7 g/dL
  gamma-GTP: 1.2 IU/L
[3]
  TERMINAL_BW: 300.3 g
  Bas: 1%
  Eos: 0.8%
  Fbg: 226.8 mg/dL
  Lym: 78.4%
  MCH: 20.1 pg
  MCHC: 34%
  MCV: 59.1 fL
  Mono: 2.8%
  Neu: 16.8%
  PT: 11.6 s
  Plat: 111.1 x10_4/uL
  RBC: 734.2 x10_4/ul
  Ret: 3.2%
  KIDNEY_L: 1.2 g
  KIDNEY_R: 1.2 g
  KIDNEY_TOTAL: 2.4 g
  ALP: 880.6 IU/L
  ALT: 36.6 IU/L
  AST: 69.6 IU/L
  BUN: 16.4 mg/dL
  CRE: 0.4 mg/dL
  DBIL: 0.094 mg/dL
  IP: 6.9 mg/dL
  K: 4 meq/L
  LDH: 178.6 IU/L
  Na: 142 meq/L
  RALB: 3.6 g/dL
  TBIL: 0.2 mg/dL
  TC: 69 mg/dL
  TG: 113.2 mg/dL
  TP: 6.1 g/dL
  gamma-GTP: 1 IU/L
[4]
  TERMINAL_BW: 396.9 g
  Bas: 1%
  Eos: 1%
  Fbg: 207.2 mg/dL
  Lym: 87%
  MCH: 19.3 pg
  MCHC: 34.4%
  MCV: 56.1 fL
  Mono: 1.5%
  Neu: 9%
  PT: 11.6 s
  RBC: 768.2 x10_4/ul
  Ret: 2.4%
  WBC: 144.5 x10_2/uL
  KIDNEY_L: 1.4 g
  KIDNEY_R: 1.3 g
  KIDNEY_TOTAL: 2.7 g
  ALP: 523.8 IU/L
  ALT: 32 IU/L
  AST: 65.8 IU/L
  BUN: 18.2 mg/dL
  CRE: 0.5 mg/dL
  DBIL: 0.1 mg/dL
  GLC: 239.5 mg/dL
  IP: 6.9 mg/dL
  K: 4.1 meq/L
  LDH: 187.8 IU/L
  Na: 140.8 meq/L
  RALB: 3.5 g/dL
  TBIL: 0.2 mg/dL
  TC: 69 mg/dL
  TG: 141.2 mg/dL
  TP: 5.9 g/dL
  gamma-GTP: 0.5 IU/L
[5]
  TERMINAL_BW: 246.9 g
  Bas: 0.8%
  Eos: 0.8%
  Fbg: 225.2 mg/dL
  Lym: 83%
  MCH: 21.6 pg
  MCHC: 34.6%
  MCV: 62.5 fL
  Mono: 2.2%
  Neu: 13%
  PT: 11.8 s
  Plat: 121.1 x10_4/uL
  RBC: 639.2 x10_4/ul
  Ret: 5.7%
  KIDNEY_L: 1.1 g
  KIDNEY_R: 1.1 g
  KIDNEY_TOTAL: 2.2 g
  ALP: 950.2 IU/L
  ALT: 35.6 IU/L
  AST: 62.4 IU/L
  BUN: 15.2 mg/dL
  CRE: 0.4 mg/dL
  DBIL: 0.1 mg/dL
  IP: 7.6 mg/dL
  K: 4.1 meq/L
  LDH: 195.6 IU/L
  Na: 141 meq/L
  RALB: 3.5 g/dL
  TBIL: 0.2 mg/dL
  TC: 69.8 mg/dL
  TG: 140.8 mg/dL
  TP: 5.6 g/dL
  gamma-GTP: 0.8 IU/L
[6]
  TERMINAL_BW: 277.7 g
  Bas: 1%
  Eos: 1%
  Fbg: 226.4 mg/dL
  Lym: 81.6%
  MCH: 21.9 pg
  MCHC: 34.7%
  MCV: 63.3 fL
  Mono: 2.4%
  Neu: 14.6%
  PT: 11.9 s
  Plat: 124.9 x10_4/uL
  RBC: 637.8 x10_4/ul
  Ret: 5.5%
  WBC: 129.6 x10_2/uL
  KIDNEY_L: 1.3 g
  KIDNEY_R: 1.2 g
  KIDNEY_TOTAL: 2.5 g
  ALP: 971.8 IU/L
  ALT: 37 IU/L
  AST: 68.4 IU/L
  BUN: 15.2 mg/dL
  CRE: 0.4 mg/dL
  DBIL: 0.098 mg/dL
  IP: 7.4 mg/dL
  K: 4.1 meq/L
  LDH: 186.8 IU/L
  Na: 141.8 meq/L
  RALB: 3.4 g/dL
  TBIL: 0.2 mg/dL
  TC: 72.6 mg/dL
  TG: 128.8 mg/dL
  TP: 5.7 g/dL
  gamma-GTP: 1.2 IU/L
[7]
  TERMINAL_BW: 332.6 g
  Bas: 1%
  Eos: 1%
  Fbg: 222.4 mg/dL
  Lym: 80%
  MCH: 20.4 pg
  MCHC: 33.6%
  MCV: 60.7 fL
  Mono: 2.6%
  Neu: 15.2%
  PT: 11.6 s
  Plat: 118.9 x10_4/uL
  RBC: 689.2 x10_4/ul
  Ret: 4.1%
  WBC: 124.4 x10_2/uL
  KIDNEY_L: 1.4 g
  KIDNEY_R: 1.3 g
  KIDNEY_TOTAL: 2.7 g
  ALP: 820.8 IU/L
  AST: 75.2 IU/L
  BUN: 17 mg/dL
  CRE: 0.5 mg/dL
  DBIL: 0.1 mg/dL
  GLC: 214.6 mg/dL
  IP: 7.4 mg/dL
  K: 4 meq/L
  LDH: 223.6 IU/L
  Na: 141.4 meq/L
  RALB: 3.5 g/dL
  TBIL: 0.2 mg/dL
  TC: 72.6 mg/dL
  TG: 141.8 mg/dL
  TP: 5.9 g/dL
  gamma-GTP: 1 IU/L
[8]
  TERMINAL_BW: 420.4 g
  Bas: 1%
  Eos: 1%
  Fbg: 213.8 mg/dL
  Lym: 81.2%
  MCH: 18.9 pg
  MCHC: 34.2%
  MCV: 55.2 fL
  Mono: 2.2%
  Neu: 13.4%
  PT: 11.7 s
  Plat: 115.1 x10_4/uL
  RBC: 790 x10_4/ul
  Ret: 2.5%
  WBC: 131 x10_2/uL
  KIDNEY_L: 1.5 g
  KIDNEY_R: 1.5 g
  KIDNEY_TOTAL: 3 g
